Measured values taken from patent US20240108009A1, “1-AMINO-1-CYCLOPROPANECARBOXYLIC ACID AND JASMONIC ACID MIXTURES AND USES THEREOF” (Valent BioSciences LLC, priority 2022, published 2024).

Key:
Format in all cases: in vivo
Imperial Gala apples = experiment: Apple coloration in Imperial Gala variety (Example 3); details: 34 hours post spray
Experimental: (§1) To determine if the mixture provided unexpected results, the observed combined efficacy (“OCE”) was divided by the expected combined efficacy (“ECE”) wherein the ECE is calculated by the Abbott method: […]
(§2) wherein ECE is the expected combined efficacy and in which A and B are the fold change from control given by the single active ingredients. If the ratio between the OCE of the mixture and the ECE of the mixture is greater than 1, then greater than expected interactions are present in the mixture. (Gisi, Synergistic Interaction of Fungicides in Mixtures, The American Phytopathological Society, 86:11, 1273-1279, 1996).
10 sets of unripened apples, Imperial Gala variety, harvested three weeks before the normal harvest date, were each foliar sprayed with either 1) 0.05% Regulaid® as a control, 2) 50 ppm jasmonic acid, 3) 300 ppm jasmonic acid, 4) 50 ppm ACC, 5) 300 ppm ACC, 6) a mixture of 50 ppm jasmonic acid and 50 ppm ACC or 7) a mixture of 300 ppm jasmonic acid and 300 ppm ACC. 34 hours post spray application percent red pixel area (shaded) was measured.

Cripps Pink apples = experiment: Apple coloration in Cripps Pink variety (Example 10); details: Cripps Pink (Example 10), 34 hours post spray
Experimental: as §1, §2
10 sets of unripened apples, Cripps Pink variety, harvested three weeks before the normal harvest date, were each foliar sprayed with either 1) 0.05% Regulaid® as a control, 2) 50 ppm jasmonic acid, 3) 300 ppm jasmonic acid, 4) 50 ppm ACC, 5) 300 ppm ACC, 6) a mixture of 50 ppm jasmonic acid and 50 ppm ACC, 7) a mixture of 50 ppm jasmonic acid and 300 ppm ACC, 8) a mixture of 300 ppm jasmonic acid and 50 ppm ACC or 9) a mixture of 300 ppm jasmonic acid and 300 ppm ACC. 34 hours post spray application percent red pixel area (shaded) was measured.

Red Aztec Fuji apples = experiment: Apple coloration in Red Aztec Fuji variety (Example 7); details: 34 hours post spray
Experimental: as §1, §2
10 sets of unripened apples, Red Aztec Fuji variety, harvested three weeks before the normal harvest date, were each foliar sprayed with either 1) 0.05% Regulaid® as a control, 2) 50 ppm jasmonic acid, 3) 300 ppm jasmonic acid, 4) 50 ppm ACC, 5) 300 ppm ACC, 6) a mixture of 50 ppm jasmonic acid and 50 ppm ACC, 7) a mixture of 50 ppm jasmonic acid and 300 ppm ACC, 8) a mixture of 300 ppm jasmonic acid and 50 ppm ACC or 9) a mixture of 300 ppm jasmonic acid and 300 ppm ACC. 34 hours post spray application percent red pixel area (shaded) was measured.

Gala apples = experiment: Apple coloration in Gala variety (Example 2, Table 2); details: 34 hours post spray; for Average % Red Pixel Area: 300 ppm foliar spray; for Fold Change From control: 300 ppm
Experimental: as §1, §2
10 sets of unripened apples, Gala variety, harvested three weeks before the normal harvest date, were each foliar sprayed with either 1) 0.05% Regulaid® as a control, 2) 300 ppm jasmonic acid, 3) 300 ppm ACC or 4) a mixture of 300 ppm jasmonic acid and 300 ppm ACC. 34 hours post spray application percent red pixel area (shaded) was measured. Additionally, this study was repeated while adding [S]-trans-2-Amino-4-(2-aminoethoxy)-3-butenoic acid hydrochloride (Retain®, Retain is a registered trademark of Valent BioSciences LLC) to the application.

Ultima Gala apples = experiment: Apple coloration in Ultima Gala variety (Example 4); details: 34 hours post spray
Honeycrisp apples [1] = experiment: Apple coloration in Honeycrisp variety (Example 1), percent red pixel area; details: 43 hours post spray; for Average % Red Pixel Area: 50 ppm foliar spray; for Fold Change From control: 50 ppm
Experimental: 10 sets of unripened green apples, Honeycrisp variety, harvested three weeks before the normal harvest date, were each foliar sprayed with either 1) 0.05% of a mixture of polyoxyethylene-polyoxypropylene polymer, propylene glycol, 2-butoxyethanol (Regulaid®, Regulaid is a registered trademark of Kalo, Inc.) as a control, 2) 50 parts per million (“ppm”) jasmonic acid, 3) 50 ppm ACC or 4) a mixture of 50 ppm jasmonic acid and 50 ppm ACC. 43 hours post spray application percent red pixel area (shaded) was measured. Percent red pixel area is an indication of the coloration of the apple fruit.
as §1, §2

Aztec Fuji apples = experiment: Apple coloration in Aztec Fuji variety (Example 8); details: 34 hours post spray
Experimental: as §1, §2
10 sets of unripened apples, Aztec Fuji variety, harvested three weeks before the normal harvest date, were each foliar sprayed with either 1) 0.05% Regulaid® as a control, 2) 50 ppm jasmonic acid, 3) 300 ppm jasmonic acid, 4) 50 ppm ACC, 5) 300 ppm ACC, 6) a mixture of 50 ppm jasmonic acid and 50 ppm ACC, 7) a mixture of 50 ppm jasmonic acid and 300 ppm ACC, 8) a mixture of 300 ppm jasmonic acid and 50 ppm ACC or 9) a mixture of 300 ppm jasmonic acid and 300 ppm ACC. 34 hours post spray application percent red pixel area (shaded) was measured.

Honeycrisp apples [2] = experiment: Apple coloration in Honeycrisp variety (Example 5); details: 34 hours post spray
Experimental: as §1, §2
10 sets of unripened apples, Honeycrisp variety, harvested three weeks before the normal harvest date, were each foliar sprayed with either 1) 0.05% Regulaid® as a control, 2) 50 ppm jasmonic acid, 3) 300 ppm jasmonic acid, 4) 50 ppm ACC, 5) 300 ppm ACC, 6) a mixture of 50 ppm jasmonic acid and 50 ppm ACC, 7) a mixture of 50 ppm jasmonic acid and 300 ppm ACC, 8) a mixture of 300 ppm jasmonic acid and 50 ppm ACC or 9) a mixture of 300 ppm jasmonic acid and 300 ppm ACC. 34 hours post spray application percent red pixel area (shaded) was measured.

Fuji apples = experiment: Apple coloration in Fuji variety (Example 6); details: 34 hours post spray
Experimental: as §1, §2
10 sets of unripened apples, Fuji variety, harvested three weeks before the normal harvest date, were each foliar sprayed with either 1) 0.05% Regulaid® as a control, 2) 50 ppm jasmonic acid, 3) 300 ppm jasmonic acid, 4) 50 ppm ACC, 5) 300 ppm ACC, 6) a mixture of 50 ppm jasmonic acid and 50 ppm ACC, 7) a mixture of 50 ppm jasmonic acid and 300 ppm ACC, 8) a mixture of 300 ppm jasmonic acid and 50 ppm ACC or 9) a mixture of 300 ppm jasmonic acid and 300 ppm ACC. 34 hours post spray application percent red pixel area (shaded) was measured.

NC1(C(=O)O)CC1 [ACC, 1-amino-1-cyclopropanecarboxylic acid]
Average % Red Pixel Area (Imperial Gala apples; 50 ppm): 7.02%
Fold Change From control (Imperial Gala apples; 50 ppm): 0.03
Average % Red Pixel Area (Imperial Gala apples; 300 ppm): 4.66%
Fold Change From control (Imperial Gala apples; 300 ppm): −0.31
Average % Red Pixel Area (Cripps Pink apples; 50 ppm): 54.12%
Fold Change From control (Cripps Pink apples; 50 ppm): 6.67
Average % Red Pixel Area (Cripps Pink apples; 300 ppm): 57.97%
Fold Change From control (Cripps Pink apples; 300 ppm): 7.15
Average % Red Pixel Area (Red Aztec Fuji apples; 50 ppm): 17.08%
Fold Change From control (Red Aztec Fuji apples; 50 ppm): −0.04
Average % Red Pixel Area (Red Aztec Fuji apples; 300 ppm): 15.84%
Fold Change From control (Red Aztec Fuji apples; 300 ppm): −0.11
Average % Red Pixel Area (Gala apples): 3.63%
Fold Change From control (Gala apples): 0.92
Average % Red Pixel Area (Ultima Gala apples; 50 ppm): 10.44%
Fold Change From control (Ultima Gala apples; 50 ppm): −0.06
Average % Red Pixel Area (Ultima Gala apples; 300 ppm): 14.87%
Fold Change From control (Ultima Gala apples; 300 ppm): 0.34
Average % Red Pixel Area (Honeycrisp apples [1]): 4.74%
Fold Change From control (Honeycrisp apples [1]): 1.18
Average % Red Pixel Area (Aztec Fuji apples; 50 ppm): 35.07%
Fold Change From control (Aztec Fuji apples; 50 ppm): 0.10
Average % Red Pixel Area (Aztec Fuji apples; 300 ppm): 29.25%
Fold Change From control (Aztec Fuji apples; 300 ppm): −0.09
Average % Red Pixel Area (Honeycrisp apples [2]; 50 ppm): 4.70%
Fold Change From control (Honeycrisp apples [2]; 50 ppm): −0.49
Average % Red Pixel Area (Honeycrisp apples [2]; 300 ppm): 3.80%
Fold Change From control (Honeycrisp apples [2]; 300 ppm): 0.59
Average % Red Pixel Area (Fuji apples; 50 ppm): 20.61%
Fold Change From control (Fuji apples; 50 ppm): 0.02
Average % Red Pixel Area (Fuji apples; 300 ppm): 25.47%
Fold Change From control (Fuji apples; 300 ppm): 0.26

CC/C=C\C[C@H]1C(=O)CC[C@@H]1CC(=O)O [jasmonic acid]
Average % Red Pixel Area (Imperial Gala apples; 50 ppm): 30.90%
Fold Change From control (Imperial Gala apples; 50 ppm): 3.54
Average % Red Pixel Area (Imperial Gala apples; 300 ppm): 45.18%
Fold Change From control (Imperial Gala apples; 300 ppm): 5.65
Average % Red Pixel Area (Cripps Pink apples; 50 ppm): 30.79%
Fold Change From control (Cripps Pink apples; 50 ppm): 3.80
Average % Red Pixel Area (Cripps Pink apples; 300 ppm): 79.81%
Fold Change From control (Cripps Pink apples; 300 ppm): 9.84
Average % Red Pixel Area (Red Aztec Fuji apples; 50 ppm): 22.53%
Fold Change From control (Red Aztec Fuji apples; 50 ppm): 0.26
Average % Red Pixel Area (Red Aztec Fuji apples; 300 ppm): 75.2%
Fold Change From control (Red Aztec Fuji apples; 300 ppm): 3.21
Average % Red Pixel Area (Gala apples): 61.5%
Fold Change From control (Gala apples): 15.53
Average % Red Pixel Area (Ultima Gala apples; 50 ppm): 43.46%
Fold Change From control (Ultima Gala apples; 50 ppm): 2.91
Average % Red Pixel Area (Ultima Gala apples; 300 ppm): 63.02%
Fold Change From control (Ultima Gala apples; 300 ppm): 4.67
Average % Red Pixel Area (Honeycrisp apples [1]): 38.66%
Fold Change From control (Honeycrisp apples [1]): 9.64
Average % Red Pixel Area (Aztec Fuji apples; 50 ppm): 38.27%
Fold Change From control (Aztec Fuji apples; 50 ppm): 0.20
Average % Red Pixel Area (Aztec Fuji apples; 300 ppm): 71.99%
Fold Change From control (Aztec Fuji apples; 300 ppm): 1.25
Average % Red Pixel Area (Honeycrisp apples [2]; 50 ppm): 5.00%
Fold Change From control (Honeycrisp apples [2]; 50 ppm): −0.46
Average % Red Pixel Area (Honeycrisp apples [2]; 300 ppm): 31.37%
Fold Change From control (Honeycrisp apples [2]; 300 ppm): 2.42
Average % Red Pixel Area (Fuji apples; 50 ppm): 24.55%
Fold Change From control (Fuji apples; 50 ppm): 0.21
Average % Red Pixel Area (Fuji apples; 300 ppm): 60.29%
Fold Change From control (Fuji apples; 300 ppm): 1.98
